Source: US9956232B2, “Dialkyl-phosphinoyl-alkane (Dapa) compounds and compositions for treatment of lower gastrointestinal tract disorders” (priority 2016, dated 2018)

How the values were obtained:
[1] = test system: pentobarbital-anesthetized male rats; test: Shaking frequency (wet-dog shaking) of anesthetized rats after intravenous, perioral or topical delivery; assay type: in vivo; conditions: anesthetized rat
Method: In experiments conducted here, test compounds were evaluated for “wet-dog shaking” as a model of cooling sensation. Using a standardized procedure, test compounds were compared in their ability to stimulate the shaking response by intravenous injection into a cannulated femoral vein, by perioral administration, and by topical delivery to the abdominal skin.
Each rat was given two injections with a 30 min interval. […] Shaking frequency was counted for 15 min after injection. Shaking was observed immediately after i.v. injection and at least 78% of the total shakes occurred in the first 5 min after injection. The response in the second trial was at least as robust in the first trial, showing the lack of desensitization.
Test compounds were dissolved in saline and administered by oral gavage to pentobarbital-anesthetized male albino rats at 20 mg/kg at a volume of 0.1 mL/100 g body weight [N=3 to 4 rats per compound]. Shaking was counted over a 40 min period and recorded at 10-min intervals.
For topical application of DAPA, the abdominal skin of the anesthetized rat was shaved and 20 μL of the pure DAPA was applied with a micropipette onto a ˜1 cm diameter circle of skin, enclosed with a ring of cream [Baby cream “Nevskaya kosmetika Detskyi” Nevskaya Kosmetika Inc., Saint-Petersburg 192029], as shown in FIG. 5D. The number of shakes was counted for 1 hr after application.

[2] = target: TRPA1 (Homo sapiens, UniProt O75762); test: TRPA1 calcium imaging (Fura-2AM) in transfected KNRK cells; assay type: cell-based; design: expressed in transfected cells; host or cells: KNRK cells, transient transfection with Lipofectamine 2000; conditions: KNRK cells transiently transfected with TRPA1
Sequence of TRPA1 (O75762 whole entry, species assumed): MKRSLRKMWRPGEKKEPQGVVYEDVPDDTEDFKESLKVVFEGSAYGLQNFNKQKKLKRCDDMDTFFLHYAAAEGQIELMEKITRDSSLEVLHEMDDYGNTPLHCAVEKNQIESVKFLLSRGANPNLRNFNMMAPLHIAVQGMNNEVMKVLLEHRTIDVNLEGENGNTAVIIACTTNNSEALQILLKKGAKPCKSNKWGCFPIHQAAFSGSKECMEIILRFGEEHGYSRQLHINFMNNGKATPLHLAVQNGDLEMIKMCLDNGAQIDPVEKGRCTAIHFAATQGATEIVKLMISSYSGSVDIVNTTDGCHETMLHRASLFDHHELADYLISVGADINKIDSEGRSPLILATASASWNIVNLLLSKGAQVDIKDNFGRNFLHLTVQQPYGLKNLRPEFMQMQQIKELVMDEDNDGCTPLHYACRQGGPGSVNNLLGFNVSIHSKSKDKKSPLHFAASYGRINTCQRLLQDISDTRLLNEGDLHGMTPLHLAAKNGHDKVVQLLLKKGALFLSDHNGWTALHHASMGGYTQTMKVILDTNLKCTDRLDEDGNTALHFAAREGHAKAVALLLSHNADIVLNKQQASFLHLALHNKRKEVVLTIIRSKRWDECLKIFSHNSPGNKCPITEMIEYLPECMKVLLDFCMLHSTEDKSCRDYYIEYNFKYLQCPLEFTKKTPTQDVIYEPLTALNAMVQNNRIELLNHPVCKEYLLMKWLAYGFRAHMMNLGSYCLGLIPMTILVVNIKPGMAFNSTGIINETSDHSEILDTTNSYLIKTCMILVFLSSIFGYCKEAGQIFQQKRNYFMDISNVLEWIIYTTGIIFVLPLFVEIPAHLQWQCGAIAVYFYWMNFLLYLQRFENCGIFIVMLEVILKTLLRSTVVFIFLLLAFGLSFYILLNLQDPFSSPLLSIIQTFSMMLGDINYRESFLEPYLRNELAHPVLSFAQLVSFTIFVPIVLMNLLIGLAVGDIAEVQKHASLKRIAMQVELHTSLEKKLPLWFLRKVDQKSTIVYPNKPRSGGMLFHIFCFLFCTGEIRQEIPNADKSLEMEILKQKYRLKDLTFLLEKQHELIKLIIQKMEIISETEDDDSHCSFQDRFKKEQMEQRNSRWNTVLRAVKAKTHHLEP
Method: (§1) DAPA-1-9 was tested on TRPV1 channels and TRPA1 channels expressed in KNRK cells (Kirsten murine sarcoma virus transformed kidney epithelial cells). KNRK cells were cultured as a monolayer and maintained in DMEM (Life Technologies), supplemented with 10% FBS (Life Technologies), 100 units/ml penicillin and 100 μg/ml streptomycin, in an incubator of 5% CO2 at 37° C. After suspension, the cells were coated on cover slips for 12 hours, then transiently transfected with cDNA (pc3.1 DNA) for TRPV1 or TRPA1 with Lipofectamine 2000 (Invitrogen) for 24 hr, and loaded with Fura-2AM™ (Molecular Probes) for 40 min at 37° C. After washing and recovery, KNRK cells were imaged at 340 and 380 nm excitation to detect free calcium influx. An increase of 50% of the 340/380 ratio was considered as the response threshold which were measured under blinded conditions for plasmids. Compounds were applied to the bath and calcium response was acquired by an inverted Nikon fluorescence microscope with a CoolSnap HQ2 CCD camera (Photometrics, Tucson, Ariz.). Data were quantified offline with the Nikon-NIS program.

[3] = target: TRPM8 (Homo sapiens, UniProt Q7Z2W7); test: TRPM8 receptor agonist assay (Fluo-8 calcium, FLIPR); assay type: cell-based; design: host or cells: CHO cells, stably transfected
Sequence of TRPM8 (Q7Z2W7 whole entry): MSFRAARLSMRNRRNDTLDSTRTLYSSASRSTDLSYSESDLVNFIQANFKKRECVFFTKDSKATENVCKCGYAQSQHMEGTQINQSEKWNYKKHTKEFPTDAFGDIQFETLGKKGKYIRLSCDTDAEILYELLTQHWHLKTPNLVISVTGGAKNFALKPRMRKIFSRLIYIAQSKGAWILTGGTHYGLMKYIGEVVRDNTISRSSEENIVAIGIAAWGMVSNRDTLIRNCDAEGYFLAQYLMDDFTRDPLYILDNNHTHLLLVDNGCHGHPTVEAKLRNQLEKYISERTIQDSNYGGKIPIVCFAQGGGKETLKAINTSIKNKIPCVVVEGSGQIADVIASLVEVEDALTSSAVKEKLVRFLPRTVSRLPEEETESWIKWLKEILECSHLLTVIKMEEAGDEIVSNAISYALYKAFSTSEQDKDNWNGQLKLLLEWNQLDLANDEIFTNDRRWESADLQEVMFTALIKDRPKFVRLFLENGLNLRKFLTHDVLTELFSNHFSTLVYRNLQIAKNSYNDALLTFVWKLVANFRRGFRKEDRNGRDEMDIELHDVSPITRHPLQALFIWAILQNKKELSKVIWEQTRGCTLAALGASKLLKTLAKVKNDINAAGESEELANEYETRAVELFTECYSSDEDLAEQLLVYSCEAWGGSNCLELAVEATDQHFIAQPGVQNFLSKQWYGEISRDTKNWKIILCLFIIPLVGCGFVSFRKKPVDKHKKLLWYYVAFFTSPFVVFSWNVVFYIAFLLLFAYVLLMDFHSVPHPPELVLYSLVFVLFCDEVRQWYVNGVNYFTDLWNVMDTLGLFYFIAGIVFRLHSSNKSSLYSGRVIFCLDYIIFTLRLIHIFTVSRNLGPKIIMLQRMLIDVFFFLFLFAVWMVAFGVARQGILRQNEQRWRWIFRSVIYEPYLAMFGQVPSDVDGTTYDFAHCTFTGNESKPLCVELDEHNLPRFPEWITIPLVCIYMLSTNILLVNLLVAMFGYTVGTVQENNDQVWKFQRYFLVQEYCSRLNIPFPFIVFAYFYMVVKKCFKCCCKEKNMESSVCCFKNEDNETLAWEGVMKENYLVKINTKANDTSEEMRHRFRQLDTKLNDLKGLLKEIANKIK
Method: Compounds were tested on (CHO) cells stably transfected with human TRPM8 cDNAs using a Fluo-8 calcium kit and a Fluorescence Imaging Plate Reader ([…]™) instrument. […] Solutions were prepared by diluting stock solutions in a HEPES-buffered physiological saline (HBPS) solution. Test compound and control formulations were loaded in polypropylene or glass-lined 384-well plates, and placed into the FLIPR instrument (Molecular Devices Corporation, Union City, Calif., USA). Each was tested at 8 concentrations with n=4 replicates per determination. […] For […]™ assay, cells were plated in 384-well black wall, flat clear-bottom microtiter plates (Type: BD Biocoat Poly-D-Lysine Multiwell Cell Culture Plate) at approximately 30,000 cells per well. Cells were incubated at 37° C. overnight to reach a near confluent monolayer appropriate for use in a fluorescence assay. The test procedure was to remove the growth media and to add 40 μL of HBPS containing Fluo-8 for 30 minutes at 37° C. 10 μL of test compound, vehicle, or control solutions in HBPS were added to each well and read for 4 minutes. Concentration-response data were analysed via the FLIPR Control software that is supplied with the FLIPR System (MDS-AT) and fitted to a Hill equation.

[4] = target: TRPV1 (Homo sapiens, UniProt Q8NER1); test: TRPV1 calcium imaging (Fura-2AM) in transfected KNRK cells; assay type: cell-based; design: expressed in transfected cells; host or cells: KNRK cells, transient transfection with Lipofectamine 2000; conditions: KNRK cells transiently transfected with TRPV1
Sequence of TRPV1 (Q8NER1 whole entry, species assumed): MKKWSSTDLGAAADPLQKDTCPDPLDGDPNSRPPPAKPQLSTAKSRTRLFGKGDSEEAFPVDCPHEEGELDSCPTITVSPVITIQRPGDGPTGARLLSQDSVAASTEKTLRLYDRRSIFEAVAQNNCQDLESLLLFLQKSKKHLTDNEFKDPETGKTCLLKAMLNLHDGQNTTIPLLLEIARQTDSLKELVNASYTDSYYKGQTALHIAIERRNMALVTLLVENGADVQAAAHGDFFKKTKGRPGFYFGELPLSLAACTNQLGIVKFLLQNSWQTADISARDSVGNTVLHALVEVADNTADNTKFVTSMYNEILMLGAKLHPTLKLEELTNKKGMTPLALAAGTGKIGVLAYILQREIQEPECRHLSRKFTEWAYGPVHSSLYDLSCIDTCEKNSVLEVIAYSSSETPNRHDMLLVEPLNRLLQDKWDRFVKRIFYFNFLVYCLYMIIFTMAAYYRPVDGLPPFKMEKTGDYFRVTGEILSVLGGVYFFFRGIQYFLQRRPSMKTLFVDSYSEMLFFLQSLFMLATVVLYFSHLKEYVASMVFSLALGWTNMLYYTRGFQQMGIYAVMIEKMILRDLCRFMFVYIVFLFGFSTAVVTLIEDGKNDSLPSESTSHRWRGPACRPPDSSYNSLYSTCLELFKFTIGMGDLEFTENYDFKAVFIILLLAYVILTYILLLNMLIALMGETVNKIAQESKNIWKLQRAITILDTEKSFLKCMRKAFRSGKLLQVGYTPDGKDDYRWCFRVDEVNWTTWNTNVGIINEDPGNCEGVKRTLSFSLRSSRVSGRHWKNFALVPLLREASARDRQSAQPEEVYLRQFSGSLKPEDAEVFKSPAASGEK
Method: as §1

- ×Menthol ([3]; TRPM8 relative potency as repeated in Table 4): 4.0
- Relative Potency ([3]; relative to menthol = 1.0 (Table 2)): 4.0
SMILES: CCCCCCCCCP(=O)(C(C)C)C(C)C [DIPA-1-9, 1-[Diisopropyl-phosphinoyl]-nonane]
- Shaking frequency, Intravenous ([1]; 2 mg/kg i.v., 2nd trial, counted for 15 min): 3 ± 1 shakes
- Shaking frequency, Perioral ([1]; 20 mg/kg by oral gavage, counted for 40 min): 0 shakes
- Shaking frequency, Topical ([1]; 20 μL pure compound on shaved abdominal skin, counted for 1 hr): 0 shakes
- agonist or antagonist activities against TRPA1 [2]: devoid of agonist or antagonist activities
- agonist or antagonist activities against TRPV1 [4]: devoid of agonist or antagonist activities
